Assay [1] relates to DOHH2 cells. Description: Cell proliferation assay (MTS), DOHH2 cells, 120 h. The settings on record: Homo sapiens, DOHH-2, 120 h. It counts as cell-based. An outline of the steps: (§1)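 Proliferation was scored by MTS (2 h, then SDS stop, A490 with 650 nm reference) and IC50 derived. Compound ran at nine final concentrations from 1.5 to 10000 nM. DOHH2 were incubated 120 h and RS4;11 72 h, both plated at 5000 cells/well in RPMI-1640 plus 10% FBS.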

In assay [2] the test system is RS4;11 cells. Put plainly: Cell proliferation assay (MTS), RS4;11 cells, 72 h. It is filed as cell-based. Conditions: Homo sapiens, RS4-11, 72 h. An outline of the steps:
as §1

For the compound `CC1(C)CCC(CN2CCN(c3ccc(C(=O)NS(=O)(=O)c4cc5c(c([N+](=O)[O-])c4)N[C@H](CO[C@H]4CC[C@H](O)CC4)CO5)c(Oc4cnc5[nH]ccc5c4)c3)CC2)=C(c2ccc(Cl)cc2)C1` [Example 2-250, 2-((1H-pyrrolo[2,3-b]pyridin-5-yl)oxy)-4-(4-((4′-chloro-5,5-dimethyl-3,4,5,6-tetrahydro-[1,1′-biphenyl]-2-yl)methyl)piperazin-1-yl)-N-(((R)-3-((((1r,4R)-4-hydroxycyclo-hexyl)oxy)methyl)-5-nitro-3,4-dihydro-2H-benzo[b][1,4]oxazin-7-yl)sulfonyl)benzamide], the figures for the IC50 in assay [1] and in assay [2] were 7 nM and 1 nM, respectively.

For `CO[C@H]1CC[C@H](OC[C@@H]2COc3cc(S(=O)(=O)NC(=O)c4ccc(N5CCN(CC6=C(c7ccc(Cl)cc7)CC(C)(C)CC6)CC5)cc4Oc4cnc5[nH]ccc5c4)cc([N+](=O)[O-])c3N2)CC1` [Example 2-251, 2-((1H-pyrrolo[2,3-b]pyridin-5-yl)oxy)-4-(4-((4′-chloro-5,5-dimethyl-3,4,5,6-tetrahydro-[1,1′-biphenyl]-2-yl)methyl)piperazin-1-yl)-N-(((R)-3-((((1r,4R)-4-methoxycyclohex-yl)oxy)methyl)-5-nitro-3,4-dihydro-2H-benzo[b][1,4]oxazin-7-yl)sulfonyl)benzamide], the half-maximal inhibitory concentration (IC50) stood at 44 nM in assay [1] and 1 nM in assay [2].

Regarding `CO[C@H]1CC[C@H](OC[C@@H]2COc3cc(S(=O)(=O)NC(=O)c4ccc(N5CCN(CC6=C(c7ccc(Cl)cc7)CCC(C)(C)C6)CC5)cc4Oc4cnc5[nH]ccc5c4)cc([N+](=O)[O-])c3N2)CC1` [Example 2-252, 2-((1H-pyrrolo[2,3-b]pyridin-5-yl)oxy)-4-(4-((4′-chloro-4,4-dimethyl-3,4,5,6-tetrahydro-[1,1′-biphenyl]-2-yl)methyl)piperazin-1-yl)-N-(((R)-3-((((1r,4R)-4-methoxycyclo-hexyl)oxy)methyl)-5-nitro-3,4-dihydro-2H-benzo[b][1,4]oxazin-7-yl)sulfonyl)benzamide], the 50% inhibitory concentration (IC50) in assay [1] turned out to be 83 nM; in assay [2], 29 nM.

In the case of `CN1CCN(C[C@@H]2CSc3cc(S(=O)(=O)NC(=O)c4ccc(N5CCN(CC6=C(c7ccc(Cl)cc7)CC(C)(C)CC6)CC5)cc4Oc4cnc5[nH]ccc5c4)cc([N+](=O)[O-])c3N2)CC1` [Example 3-1, (R)-2-((1H-pyrrolo[2,3-b]pyridin-5-yl)oxy)-4-(4-((4′-chloro-5,5-dimethyl-3,4,5,6-tetrahydro-[1,1′-biphenyl]-2-yl)methyl)piperazin-1-yl)-N-((3-((4-methylpiperazin-1-yl)methyl)-5-nitro-3,4-dihydro-2H-benzo[b][1,4]thiazin-7-yl)sulfonyl)benzamide], the concentration for half-maximal inhibition (IC50) in assay [1] is 3 nM; in assay [2] it was 1 nM.

Take `CC1(C)CCC(CN2CCN(c3ccc(C(=O)NS(=O)(=O)c4cc5c(c([N+](=O)[O-])c4)N[C@H](CCN4CCOCC4)CS5)c(Oc4cnc5[nH]ccc5c4)c3)CC2)=C(c2ccc(Cl)cc2)C1` [Example 3-2, (R)-2-((1H-pyrrolo[2,3-b]pyridin-5-yl)oxy)-4-(4-((4′-chloro-5,5-dimethyl-3,4,5,6-tetrahydro-[1,1′-biphenyl]-2-yl)methyl)piperazin-1-yl)-N-((3-(2-morpholinoethyl)-5-nitro-3,4-dihydro-2H-benzo[b][1,4]thiazin-7-yl)sulfonyl)benzamide]: the IC50 in assay [1] worked out at 13 nM; in assay [2], 3 nM.

`CC1(C)CCC(CN2CCN(c3ccc(C(=O)NS(=O)(=O)c4cc5c(c([N+](=O)[O-])c4)N[C@H](CN4CCOCC4)CS5)c(Oc4cnc5[nH]ccc5c4)c3)CC2)=C(c2ccc(Cl)cc2)C1` [Example 3-3, (R)-2-((1H-pyrrolo[2,3-b]pyridin-5-yl)oxy)-4-(4-((4′-chloro-5,5-dimethyl-3,4,5,6-tetra-hydro-[1,1′-biphenyl]-2-yl)methyl)piperazin-1-yl)-N-((3-(morpholinomethyl)-5-nitro-3,4-dihydro-2H-benzo[b][1,4]thiazin-7-yl)sulfonyl)benzamide]: the figures for the 50% inhibitory concentration (IC50) in assay [1] and in assay [2] were 58 nM and 35 nM, respectively.

The term IC50 denotes the point on the concentration scale where inhibition reaches its midpoint.

The values are drawn from US11091478B2 (Fochon Pharmaceuticals, Ltd., priority 2017, dated 2021).
